ChEMBL document CHEMBL1201861, “Genomics of Drug Sensitity in Cancer screening data, Wellcome Trust Sanger Institute”
pIC50: −log10 of the molar value. “And” between values parts separate entries of the source, which are not always exact repeats. Identical values can stand only once.

Assays:
Experiment in all cases: cells
NCI-H1155 = assay type: functional, cell-based; settings: Homo sapiens;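 also: cell growth inhibition measured by a viability assay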
Description: SANGER: Inhibition of human NCI-H1155 cell growth in a cell viability assay.

SNU1 = assay type: functional, cell-based; settings: Homo sapiens;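 also: growth inhibition of human NCI-SNU-1 cells, measured with a cell viability assay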
Description: SANGER: Inhibition of human NCI-SNU-1 cell growth in a cell viability assay.

AM-38 = assay type: functional, cell-based, Homo sapiens;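 also: growth inhibition of AM-38 cells of human origin, read out by a cell viability assay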
Description: SANGER: Inhibition of human AM-38 cell growth in a cell viability assay.

SW1463 = assay type: functional, cell-based, Homo sapiens;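 also: growth inhibition of SW1463 cells, determined with a cell viability assay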
Description: SANGER: Inhibition of human SW1463 cell growth in a cell viability assay.

NEC8 = assay type: functional, cell-based, Homo sapiens; settings: nec8;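 also: growth inhibition of human NEC8 cells, read out by a cell viability assay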
Description: SANGER: Inhibition of human NEC8 cell growth in a cell viability assay.

KY821 = assay type: functional, cell-based; settings: Homo sapiens;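 also: growth inhibition of human KY821 cells, read out by a cell viability assay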
Description: SANGER: Inhibition of human KY821 cell growth in a cell viability assay.

U-251 = assay type: functional, cell-based, Homo sapiens;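 also: growth inhibition of human U-251 cells, read out through a cell viability assay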
Description: SANGER: Inhibition of human U251 cell growth in a cell viability assay.

G-402 = assay type: functional, cell-based, Homo sapiens
Description: SANGER: Inhibition of human G-402 cell growth in a cell viability assay.

BT-474 = assay type: functional, cell-based, Homo sapiens
Description: SANGER: Inhibition of human BT-474 cell growth in a cell viability assay.

CW-2 = assay type: functional, cell-based, Homo sapiens;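 also: growth inhibition of CW-2 cells, read out by a cell viability assay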
Description: SANGER: Inhibition of human CW-2 cell growth in a cell viability assay.

BE-13 = assay type: functional, cell-based; settings: Homo sapiens;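 also: growth inhibition of human BE-13 cells, measured with a cell viability assay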
Description: SANGER: Inhibition of human BE-13 cell growth in a cell viability assay.

COLO-684 = assay type: functional, cell-based; settings: Homo sapiens
Description: SANGER: Inhibition of human COLO-684 cell growth in a cell viability assay.

MLMA = assay type: functional, cell-based, Homo sapiens;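 also: growth inhibition of MLMA cells (human), determined through a cell viability readout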
Description: SANGER: Inhibition of human MLMA cell growth in a cell viability assay.

BXPC-3 = assay type: functional, cell-based, Homo sapiens;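 also: growth inhibition of human BxPC-3 cells, read out by a cell viability assay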
Description: SANGER: Inhibition of human BxPC-3 cell growth in a cell viability assay.

LS-1034 = assay type: functional, cell-based, Homo sapiens
Description: SANGER: Inhibition of human LS-1034 cell growth in a cell viability assay.

NCI-H1581 = assay type: functional, cell-based, Homo sapiens;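 also: cell growth inhibition read out by a viability assay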
Description: SANGER: Inhibition of human NCI-H1581 cell growth in a cell viability assay.

EW-3 = assay type: functional, cell-based; settings: Homo sapiens;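 also: cell viability assay read-out, IC50 reflects inhibition of growth of the EW-3 cells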
Description: SANGER: Inhibition of human EW-3 cell growth in a cell viability assay.

FaDu = assay type: functional, cell-based, Homo sapiens;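 also: cell viability readout of growth inhibition in FaDu cells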
Description: SANGER: Inhibition of human FADU cell growth in a cell viability assay.

D-502MG = assay type: functional, cell-based, Homo sapiens
Description: SANGER: Inhibition of human D-502MG cell growth in a cell viability assay.

CWR22R = assay type: functional, cell-based, Homo sapiens;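 also: growth inhibition of 22Rv1 cells, read out with a cell viability assay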
Description: SANGER: Inhibition of human 22RV1 cell growth in a cell viability assay.

8-MG-BA = assay type: functional, cell-based, Homo sapiens;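 also: growth inhibition of 8-MG-BA cells, read out with a cell viability assay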
Description: SANGER: Inhibition of human 8-MG-BA cell growth in a cell viability assay.

NB13 = assay type: functional, cell-based, Homo sapiens;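 also: cell viability readout measuring growth inhibition of human NB13 cells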
Description: SANGER: Inhibition of human NB13 cell growth in a cell viability assay.

SCC-4 = assay type: functional, cell-based, Homo sapiens;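 also: growth inhibition of human SCC-4 cells, read out as cell viability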
Description: SANGER: Inhibition of human SCC-4 cell growth in a cell viability assay.

HH = assay type: functional, cell-based; settings: Homo sapiens
Description: SANGER: Inhibition of human HH cell growth in a cell viability assay.

NB10 = assay type: functional, cell-based, Homo sapiens;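 also: growth inhibition of NB10 cells, read out by a cell viability assay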
Description: SANGER: Inhibition of human NB10 cell growth in a cell viability assay.

BHY = assay type: functional, cell-based, Homo sapiens;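 also: cell growth inhibition read out by a viability assay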
Description: SANGER: Inhibition of human BHY cell growth in a cell viability assay.

NCI-H1437 = assay type: functional, cell-based, Homo sapiens;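 also: growth inhibition of human NCI-H1437 cells, read out by a cell viability assay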
Description: SANGER: Inhibition of human NCI-H1437 cell growth in a cell viability assay.

Ramos-2G6-4C10 = assay type: functional, cell-based; settings: Homo sapiens;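 also: growth inhibition of the cell line, measured by a cell viability read-out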
Description: SANGER: Inhibition of human Ramos-2G6-4C10 cell growth in a cell viability assay.

MMAC-SF = assay type: functional, cell-based, Homo sapiens;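 also: growth inhibition of human MMAC-SF cells, read out with a cell viability assay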
Description: SANGER: Inhibition of human MMAC-SF cell growth in a cell viability assay.

NCI-H1092 = assay type: functional, cell-based; settings: Homo sapiens;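 also: cell growth inhibition measured with a cell viability assay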
Description: SANGER: Inhibition of human NCI-H1092 cell growth in a cell viability assay.

MV4-11 = assay type: functional, cell-based, MV-4-11; settings: Homo sapiens;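 also: cell viability readout measuring growth inhibition of human MV-4-11 cells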
Description: SANGER: Inhibition of human MV-4-11 cell growth in a cell viability assay.

MDA-MB-175-VII = assay type: functional, cell-based, Homo sapiens
OE19 = assay type: functional, cell-based, Homo sapiens;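 also: growth inhibition of OE19 cells, measured through a cell viability read-out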
Description: SANGER: Inhibition of human OE19 cell growth in a cell viability assay.

UMC-11 = assay type: functional, cell-based, Homo sapiens;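 also: growth inhibition of UMC-11 cells, read out with a cell viability assay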
Description: SANGER: Inhibition of human UMC-11 cell growth in a cell viability assay.

HCC1954 = assay type: functional, cell-based, Homo sapiens;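 also: growth inhibition of human HCC1954 cells, read out with a cell viability assay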
Description: SANGER: Inhibition of human HCC1954 cell growth in a cell viability assay.

JEG-3 = assay type: functional, cell-based, Homo sapiens;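 also: growth inhibition of human JEG-3 cells, read out with a cell viability assay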
Description: SANGER: Inhibition of human JEG-3 cell growth in a cell viability assay.

C2BBe1 = assay type: functional, cell-based, Homo sapiens;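 also: growth inhibition of C2BBe1 cells, read out through a viability assay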
Description: SANGER: Inhibition of human C2BBe1 cell growth in a cell viability assay.

P30-OHK = assay type: functional, cell-based; settings: Homo sapiens;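 also: growth inhibition of the P30-OHK cell line, read out with a cell viability assay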
Description: SANGER: Inhibition of human P30-OHK cell growth in a cell viability assay.

EM-2 = assay type: functional, cell-based; settings: Homo sapiens;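 also: growth inhibition of EM-2 cells, read out with a cell viability assay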
Description: SANGER: Inhibition of human EM-2 cell growth in a cell viability assay.

SW-620 = assay type: functional, cell-based, Homo sapiens;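 also: growth inhibition of human SW-620 cells, measured by a cell viability assay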
Description: SANGER: Inhibition of human SW620 cell growth in a cell viability assay.

NCI-H209 = assay type: functional, cell-based; settings: Homo sapiens;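 also: growth inhibition of human NCI-H209 cells, measured by a cell viability assay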
Description: SANGER: Inhibition of human NCI-H209 cell growth in a cell viability assay.

697 = assay type: functional, cell-based; settings: Homo sapiens
Description: SANGER: Inhibition of human 697 cell growth in a cell viability assay.

DMS-79 = assay type: functional, cell-based; settings: Homo sapiens;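 also: growth inhibition measured with a cell viability assay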
Description: SANGER: Inhibition of human DMS-79 cell growth in a cell viability assay.

HuTu80 = assay type: functional, cell-based, Homo sapiens, HUTU-80;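 also: growth inhibition of HuTu80 human cells, determined with a cell viability readout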
Description: SANGER: Inhibition of human HUTU-80 cell growth in a cell viability assay.

DMS-114 = assay type: functional, cell-based, Homo sapiens
PANC-03-27 = assay type: functional, cell-based, Homo sapiens
Description: SANGER: Inhibition of human PANC-03-27 cell growth in a cell viability assay.

ES3 = assay type: functional, cell-based, Homo sapiens;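 also: growth inhibition of ES3 cells, read out with a cell viability assay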
Description: SANGER: Inhibition of human ES3 cell growth in a cell viability assay.

Mo = assay type: functional, cell-based; settings: Homo sapiens
Description: SANGER: Inhibition of human Mo-T cell growth in a cell viability assay.

LB831-BLC = assay type: functional, cell-based, Homo sapiens;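 also: growth inhibition of LB831-BLC cells, read out with a cell viability assay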
Description: SANGER: Inhibition of human LB831-BLC cell growth in a cell viability assay.

U-87 MG = assay type: functional, cell-based, U-87MG ATCC; settings: Homo sapiens;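 also: growth inhibition of the cells measured with a viability assay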
Description: SANGER: Inhibition of human U-87-MG cell growth in a cell viability assay.

RCM-1 = assay type: functional, cell-based, Homo sapiens;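 also: growth inhibition of the RCM-1 line, determined with a cell viability readout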
Description: SANGER: Inhibition of human RCM-1 cell growth in a cell viability assay.

M14 = assay type: functional, cell-based, Homo sapiens;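 also: growth inhibition of M14 cells, read out with a cell viability assay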
Description: SANGER: Inhibition of human M14 cell growth in a cell viability assay.

NCI-H2170 = assay type: functional, cell-based, Homo sapiens;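 also: cell viability assay measuring growth inhibition of human NCI-H2170 cancer cells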
Description: SANGER: Inhibition of human NCI-H2170 cell growth in a cell viability assay.

`Cc1cc([C@@H](C)Nc2ccccc2C(=O)O)c2nc(N3CCOCC3)cc(=O)n2c1` [AZD-6482] showed a pIC50 (NCI-H1155) of less than 5.29, a pIC50 (SNU1) of less than 5.29 and a pIC50 (AM-38; am-38) of less than 5.29. The pIC50 (SW1463; sw1463) was less than 5.29, the pIC50 (NEC8) was < 5.29 and 5.42 and the pIC50 (KY821) was less than 5.29. For the same molecule, the pIC50 (U-251; u-251) was less than 5.29, the pIC50 (G-402; g-402) was 5.49 and < 5.29 and the pIC50 (BT-474; bt-474) was less than 5.29. The pIC50 (CW-2; cw-2) was less than 5.29, the pIC50 (BE-13) was less than 5.29 and the pIC50 (COLO-684) was 5.66. For the same molecule, the pIC50 (MLMA; Homo sapiens, MLMA) was 5.43, the pIC50 (MLMA; mlma) was 5.31 and the pIC50 (BXPC-3; bxpc-3) was < 5.29 and 5.46. It also gave a pIC50 (LS-1034; Homo sapiens, LS-1034) of less than 5.29, a pIC50 (LS-1034; ls-1034) of less than 5.29 and a pIC50 (NCI-H1581; nci-h1581) of less than 5.29. It also gave a pIC50 (EW-3) of less than 5.29, a pIC50 (FaDu; Homo sapiens, FaDu) of less than 5.29 and a pIC50 (FaDu; fadu) of less than 5.29. For the same molecule, the pIC50 (D-502MG; d-502mg) was less than 5.29, the pIC50 (CWR22R; Homo sapiens, 22Rv1) was less than 5.29 and the pIC50 (CWR22R; cwr22r) was less than 5.29. It also gave a pIC50 (8-MG-BA; 8-mg-ba) of less than 5.29, a pIC50 (NB13; Homo sapiens, NB13) of less than 5.29 and a pIC50 (NB13; nb13) of less than 5.29. For the same molecule, the pIC50 (SCC-4; scc-4) was less than 5.29, the pIC50 (HH) was 6.02 and the pIC50 (NB10; Homo sapiens, NB10) was less than 5.29. The pIC50 (NB10; nb10) was less than 5.29, the pIC50 (BHY; bhy) was less than 5.29 and the pIC50 (NCI-H1437; nci-h1437) was less than 5.29. The pIC50 (Ramos-2G6-4C10) was less than 5.29, the pIC50 (MMAC-SF; mmac-sf) was less than 5.29 and the pIC50 (NCI-H1092) was less than 5.29. The pIC50 (MV4-11) was 5.57, the pIC50 (MDA-MB-175-VII; mda-mb-175-vii) was less than 5.29 and the pIC50 (OE19; oe19) was less than 5.29. It also gave a pIC50 (UMC-11; Homo sapiens, UMC-11) of less than 5.29, a pIC50 (UMC-11; umc-11) of less than 5.29 and a pIC50 (HCC1954; Homo sapiens, HCC1954) of 5.30. It also gave a pIC50 (HCC1954; hcc1954) of less than 5.29, a pIC50 (JEG-3; jeg-3) of less than 5.29 and a pIC50 (C2BBe1; Homo sapiens, C2BBe1) of less than 5.29. The pIC50 (C2BBe1; c2bbe1) was less than 5.29, the pIC50 (P30-OHK) was 5.97 and the pIC50 (EM-2) was less than 5.29. The pIC50 (SW-620; sw-620) was less than 5.29, the pIC50 (NCI-H209) was less than 5.29 and the pIC50 697 was 5.34. The pIC50 (DMS-79) was less than 5.29, the pIC50 (HuTu80; Homo sapiens, HuTu80) was less than 5.29 and the pIC50 (HuTu80; hutu-80) was less than 5.29. The pIC50 (DMS-114; dms-114) was less than 5.29, the pIC50 (PANC-03-27; Homo sapiens, PANC-03-27) was less than 5.29 and the pIC50 (PANC-03-27; panc-03-27) was 5.36. The pIC50 (ES3; Homo sapiens, ES3) was less than 5.29, the pIC50 (ES3; es3) was less than 5.29 and the pIC50 (Mo) was less than 5.29. For the same molecule, the pIC50 (LB831-BLC; lb831-blc) was less than 5.29, the pIC50 (U-87 MG) was less than 5.29 and the pIC50 (RCM-1; rcm-1) was less than 5.29. The pIC50 (M14; m14) was less than 5.29 and the pIC50 (NCI-H2170; nci-h2170) was less than 5.29.
Work on `Cn1cc(C2=C(c3ccc(Cl)cc3Cl)C(=O)NC2=O)c2ccccc21` [SB-216763] yielded a pIC50 (NCI-H1155) of less than 5.00, a pIC50 (SNU1) of less than 5.00 and a pIC50 (AM-38; Homo sapiens, AM-38) of less than 5.00. The pIC50 (SW1463; Homo sapiens, SW1463) was less than 5.00, the pIC50 (U-251; Homo sapiens, U-251) was less than 5.00 and the pIC50 (G-402; Homo sapiens, G-402) was less than 5.00. For the same molecule, the pIC50 (BT-474; Homo sapiens, BT-474) was less than 5.00, the pIC50 (CW-2; Homo sapiens, CW-2) was less than 5.00 and the pIC50 (BE-13) was less than 5.00. The pIC50 (COLO-684) was less than 5.00, the pIC50 (MLMA; Homo sapiens, MLMA) was less than 5.00 and the pIC50 (BXPC-3; Homo sapiens, BXPC-3) was less than 5.00. The pIC50 (LS-1034; Homo sapiens, LS-1034) was less than 5.00, the pIC50 (NCI-H1581; Homo sapiens, NCI-H1581) was less than 5.00 and the pIC50 (FaDu; Homo sapiens, FaDu) was less than 5.00. It also gave a pIC50 (D-502MG; Homo sapiens, D-502MG) of less than 5.00, a pIC50 (CWR22R; Homo sapiens, 22Rv1) of less than 5.00 and a pIC50 (8-MG-BA; Homo sapiens, 8-MG-BA) of less than 5.00. For the same molecule, the pIC50 (NB13; Homo sapiens, NB13) was less than 5.00, the pIC50 (SCC-4; Homo sapiens, SCC-4) was less than 5.00 and the pIC50 (HH) was less than 5.00. The pIC50 (NB10; Homo sapiens, NB10) was less than 5.00, the pIC50 (BHY; Homo sapiens, BHY) was less than 5.00 and the pIC50 (NCI-H1437; Homo sapiens, NCI-H1437) was less than 5.00. For the same molecule, the pIC50 (Ramos-2G6-4C10) was less than 5.00, the pIC50 (MMAC-SF; Homo sapiens, MMAC-SF) was less than 5.00 and the pIC50 (NCI-H1092) was less than 5.00. It also gave a pIC50 (MV4-11) of 5.57, a pIC50 (MDA-MB-175-VII; Homo sapiens, MDA-MB-175-VII) of less than 5.00 and a pIC50 (OE19; Homo sapiens, OE19) of less than 5.00. It also gave a pIC50 (UMC-11; Homo sapiens, UMC-11) of less than 5.00, a pIC50 (HCC1954; Homo sapiens, HCC1954) of less than 5.00 and a pIC50 (JEG-3; Homo sapiens, JEG-3) of less than 5.00. For the same molecule, the pIC50 (C2BBe1; Homo sapiens, C2BBe1) was less than 5.00, the pIC50 (P30-OHK) was less than 5.00 and the pIC50 (EM-2) was less than 5.00. The pIC50 (SW-620; Homo sapiens, SW-620) was less than 5.00, the pIC50 (NCI-H209) was less than 5.00 and the pIC50 697 was less than 5.00. It also gave a pIC50 (DMS-79) of less than 5.00, a pIC50 (HuTu80; Homo sapiens, HuTu80) of less than 5.00 and a pIC50 (DMS-114; Homo sapiens, DMS-114) of less than 5.00. It also gave a pIC50 (PANC-03-27; Homo sapiens, PANC-03-27) of less than 5.00, a pIC50 (ES3; Homo sapiens, ES3) of less than 5.00 and a pIC50 (Mo) of less than 5.00. For the same molecule, the pIC50 (LB831-BLC; Homo sapiens, LB831-BLC) was less than 5.00, the pIC50 (U-87 MG) was less than 5.00 and the pIC50 (RCM-1; Homo sapiens, RCM-1) was less than 5.00. It also gave a pIC50 (M14; Homo sapiens, M14) of less than 5.00 and a pIC50 (NCI-H2170; Homo sapiens, NCI-H2170) of less than 5.00.
